According to US10294202B2, “Pyrrolidinones as herbicides” (FMC Corporation, priority 2013, dated 2019):

Key:
[1] = system: kochia; experiment: Test D pre-/postemergence herbicide test; assay type: in vivo, Kochia scoparia; details: Preemergence; for Plant response rating, Kochia: scale 0 to 100 (0 no effect, 100 complete control)
In short: (§1)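 Greenhouse pre- and postemergence screen with surfactant-containing non-phytotoxic solvent formulations. Silt loam soil served for preemergence application, and peat/vermiculite medium for postemergence application at 2–18 cm height. Visual 0–100 control ratings versus controls were recorded 7 to 21 days later.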

[2] = system: lambsquarters; experiment: Test D pre-/postemergence herbicide test; assay type: in vivo, Chenopodium album; details: Preemergence; for Plant response rating, Lambsquarters: scale 0 to 100 (0 no effect, 100 complete control)
In short: as §1

[3] = system: panicum, fall; experiment: Test E preemergence herbicide test; assay type: in vivo, Panicum dichotomiflorum; design: key: 0 = no effect, 100 = complete control
In short: (§2)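 Seeds were sown in silt loam soil and treated preemergence with test chemicals in a non-phytotoxic solvent mixture containing a surfactant. Plants were kept in a greenhouse for 21 days, then visually rated against untreated controls on a 0–100 scale (0 = no effect, 100 = complete control).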

[4] = system: field bindweed; experiment: Test E preemergence herbicide test; assay type: in vivo, Convolvulus arvensis; design: key: 0 = no effect, 100 = complete control
In short: as §2

[5] = system: monochoria; experiment: Test F flood (paddy) test; assay type: in vivo, Monochoria vaginalis; details: 21 d, scale 0-100
In short: (§3)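 Compounds were applied directly to paddy water held 3 cm above silt loam soil, with rice and weeds at the 2.0–2.5-leaf stage, grown in a greenhouse at 30/27° C under a 16-h photoperiod. Visual ratings (0 no effect to 100 complete control) were made against untreated controls after 21 d.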

[6] = system: sprangletop, Brdd.; experiment: Test F flood (paddy) test; assay type: in vivo, Leptochloa fascicularis; details: 21 d, scale 0-100
In short: as §3

Q: For `O=C1NC[C@H](c2cccc(C(F)(F)F)c2)[C@H]1C(=O)Nc1cccc(F)c1F` [Compound 206], which “Plant response rating, Kochia” value ([1]; 62 g ai/ha) is on record?
A: The value was 60.

Q: And the “Plant response rating, Kochia” value ([1]; 125 g ai/ha)?
A: The value was 70.

Q: What about the “Plant response rating, Kochia” value ([1]; 31 g ai/ha) of the same molecule?
A: The value was 45.

Q: What about the Plant response rating ([1]; 250 g ai/ha, Kochia, scale 0 to 100) of the same molecule?
A: Its Plant response rating is 80.

Q: What about the “Plant response rating, Lambsquarters” value ([2]; 62 g ai/ha) of the same molecule?
A: The value was 80.

Q: And the “Plant response rating, Lambsquarters” value ([2]; 125 g ai/ha)?
A: The value was 85.

Q: And the “Plant response rating, Lambsquarters” value ([2]; 31 g ai/ha)?
A: The value was 50.

Q: And the Plant response rating ([2]; 250 g ai/ha, Lambsquarters, scale 0 to 100)?
A: Its Plant response rating is 90.

Q: And the “Plant response rating, Panicum, Fall” value ([3]; 31 g ai/ha)?
A: The value was 75.

Q: What about the “Plant response rating, Panicum, Fall” value ([3]; 62 g ai/ha) of the same molecule?
A: Its value is 98.

Q: What about the “Plant response rating, Panicum, Fall” value ([3]; 125 g ai/ha) of the same molecule?
A: Its value is 98.

Q: What about the “Plant response rating, Panicum, Fall” value ([3]; 250 g ai/ha) of the same molecule?
A: The value was 98.

Q: What about the “Plant response rating, Field Bindweed” value ([4]; 31 g ai/ha) of the same molecule?
A: The value was 20.

Q: And the “Plant response rating, Field Bindweed” value ([4]; 62 g ai/ha)?
A: The value was 20.

Q: What about the “Plant response rating, Field Bindweed” value ([4]; 125 g ai/ha) of the same molecule?
A: The value was 30.

Q: And the “Plant response rating, Field Bindweed” value ([4]; 250 g ai/ha)?
A: Its value is 50.

Q: And the “Plant response rating, Monochoria” value ([5]; 64 g ai/ha)?
A: The value was 80.

Q: What about the “Plant response rating, Monochoria” value ([5]; 125 g ai/ha) of the same molecule?
A: The value was 90.

Q: And the “Plant response rating, Monochoria” value ([5]; 250 g ai/ha)?
A: The value was 100.

Q: What about the “Plant response rating, Monochoria” value ([5]; 500 g ai/ha) of the same molecule?
A: Its value is 100.

Q: What about the “Plant response rating, Sprangletop, Brdd.” value ([6]; 64 g ai/ha) of the same molecule?
A: Its value is 90.

Q: And the “Plant response rating, Sprangletop, Brdd.” value ([6]; 125 g ai/ha)?
A: Its value is 95.

Q: And the “Plant response rating, Sprangletop, Brdd.” value ([6]; 250 g ai/ha)?
A: The value was 100.

Q: And the “Plant response rating, Sprangletop, Brdd.” value ([6]; 500 g ai/ha)?
A: Its value is 100.
